The record followed here is ChEMBL document CHEMBL1154479, “Newer GABA derivatives for the treatment of epilepsy including febrile seizures: a bioisosteric approach” (Eur J Med Chem, 2008).

Structures are written as SMILES. Activity calls are given as the source filed them. The rule behind the calls is not given here.

In the first series the test system is Mus musculus. Briefly: Anticonvulsant activity in Swiss albino mouse assessed as inhibition of maximal electroshock-induced seizures at 300 mg/kg, ip administered 30 mins before electroshock measured after 0.5 hrs post electroshock.
Details: not given
The format is functional, organism-based. The arrangement: dose 300 mg/kg. (In general: The maximal electroshock test induces tonic seizures with an electrical stimulus.)
As for `C/C(=N\NC(=S)NCCCC(=O)O)c1ccccc1`, the outcome was inactive.
Turning to `C/C(=N\NC(=S)NCCCC(=O)O)c1ccc([N+](=O)[O-])cc1`, the outcome was inactive.
Regarding `O=C(O)CCCNC(=S)N/N=C/c1ccccc1O`, the result was inactive.
Turning to `O=C(O)CCCNC(=S)N/N=C/c1ccc([N+](=O)[O-])cc1`, the result was inactive.
Take `C/C(=N\NC(=S)NCCCC(=O)O)c1ccc(C)cc1`: the outcome was inactive.

In the next series the test system is Mus musculus. Briefly: Anticonvulsant activity in ip dosed Swiss albino mouse assessed as inhibition of subcutaneous picrotoxin-induced seizures administered 30 mins before PIC challenge measured after 4 hrs post PIC challenge. The format is functional.
Details: not given
For `C/C(=N\NC(=S)NCCCC(=O)O)c1ccccc1`, the Activity was found to be 100 mg/kg.
Consider `O=C(O)CCCNC(=S)N/N=C/c1ccc([N+](=O)[O-])cc1`, for which the Activity stood at 300 mg/kg.

For a further series, the system named is Mus musculus. Briefly: Anticonvulsant activity in ip dosed Swiss albino mouse assessed as inhibition of maximal electroshock-induced seizures administered 30 mins before electroshock measured after 0.5 hrs post electroshock. Type of series: functional.
Details: not given
For the compound `Nc1nnc(-c2cccc(Cl)c2Cl)c(N)n1` [LAMOTRIGINE], the Activity worked out at 30 mg/kg.
On to `O=C(O)CCCNC(=S)NN=C(c1ccccc1)c1ccccc1`, for which the Activity worked out at 300 mg/kg.
Turning to `O=C1NC(=O)C(c2ccccc2)(c2ccccc2)N1` [PHENYTOIN], the Activity amounted to 30 mg/kg.
For the compound `NNC(=S)NCCCC(=O)O`, the Activity stood at 300 mg/kg.

A further series has as its system Mus musculus. Briefly: Anticonvulsant activity in Swiss albino mouse assessed as inhibition of subcutaneous picrotoxin-induced seizures at 300 mg/kg, ip administered 30 mins before PIC challenge measured after 0.5 hrs post PIC challenge. The arrangement: dose 300 mg/kg. The format is functional, organism-based.
Details: not given
Regarding `Nc1nnc(-c2cccc(Cl)c2Cl)c(N)n1` [LAMOTRIGINE], the outcome was inactive.
The same measure, in the same setting: for `O=C1NC(=O)C(c2ccccc2)(c2ccccc2)N1` [PHENYTOIN] the value was “inactive”; for `C/C(=N\NC(=S)NCCCC(=O)O)c1ccc([N+](=O)[O-])cc1`, “inactive”; for `NNC(=S)NCCCC(=O)O`, “inactive”.
On the same count and under the same terms, next, `C/C(=N\NC(=S)NCCCC(=O)O)c1ccc(C)cc1`: “inactive”.

In the next series the test system is Mus musculus. Briefly: Anticonvulsant activity in ip dosed Swiss albino mouse assessed as inhibition of subcutaneous pentylenetetrazole-induced seizures administered 30 mins before PTZ challenge measured after 0.5 hrs post PTZ challenge.
Details: not given
Type of series: functional.
Turning to `Nc1nnc(-c2cccc(Cl)c2Cl)c(N)n1` [LAMOTRIGINE], the Activity was found to be 30 mg/kg.
Turning to `C/C(=N\NC(=S)NCCCC(=O)O)c1ccccc1`, the Activity was found to be 300 mg/kg.
As for `O=C(O)CCCNC(=S)N/N=C/c1ccccc1O`, the Activity came to 100 mg/kg.

The subject of the next series is Mus musculus. Briefly: Anticonvulsant activity in Swiss albino mouse assessed as inhibition of subcutaneous strychnine-induced seizures at 300 mg/kg, ip administered 30 mins before STY challenge measured after 0.5 hrs post STY challenge.
Details: not given
More on the design: dose 300 mg/kg. The format is functional, organism-based.
On to `Nc1nnc(-c2cccc(Cl)c2Cl)c(N)n1` [LAMOTRIGINE], for which the result was inactive.
Consider `O=C(O)CCCNC(=S)NN=C(c1ccccc1)c1ccccc1`, for which the result was inactive.
With `C/C(=N\NC(=S)NCCCC(=O)O)c1ccccc1`, the result was inactive.
For the compound `O=C1NC(=O)C(c2ccccc2)(c2ccccc2)N1` [PHENYTOIN], the result was inactive.
`C/C(=N\NC(=S)NCCCC(=O)O)c1ccc([N+](=O)[O-])cc1`: the outcome was inactive.
Regarding `NNC(=S)NCCCC(=O)O`, the result was inactive.
As for `O=C(O)CCCNC(=S)N/N=C/c1ccc([N+](=O)[O-])cc1`, the result was inactive.
For `C/C(=N\NC(=S)NCCCC(=O)O)c1ccc(C)cc1`, the result was inactive.

The next series has as its system Mus musculus. Briefly: Neurotoxicity in Swiss albino mouse assessed as inability of animal to maintain equilibrium on the rod for at least 1 min at 300 mg/kg, ip after 0.5 hrs by rotarod test. The format is toxicity, organism-based. The arrangement: dose 300 mg/kg, route intraperitoneal. The note with it: in vivo.
Take `O=C(O)CCCNC(=S)NN=C(c1ccccc1)c1ccccc1`: the Activity entry is “Non-toxic”.
As to `C/C(=N\NC(=S)NCCCC(=O)O)c1ccccc1`, the Activity entry was “Non-toxic”.
On the same count and under the same terms, next, `O=C(O)CCCNC(=S)N/N=C/c1ccccc1O`: “Non-toxic”; `O=C(O)CCCNC(=S)N/N=C/c1ccc([N+](=O)[O-])cc1`: “Non-toxic”.
With `C/C(=N\NC(=S)NCCCC(=O)O)c1ccc(C)cc1`, the Activity entry was “Non-toxic”.

In another series the test system is Mus musculus. Briefly: Anticonvulsant activity in Swiss albino mouse assessed as inhibition of subcutaneous pentylenetetrazole-induced seizures at 300 mg/kg, ip administered 30 mins before PTZ challenge measured after 4 hrs post PTZ challenge. The format is functional, organism-based. More on the design: dose 300 mg/kg.
Details: not given
In the case of `Nc1nnc(-c2cccc(Cl)c2Cl)c(N)n1` [LAMOTRIGINE], the result was inactive.
Still for that read-out and setting: for `O=C(O)CCCNC(=S)NN=C(c1ccccc1)c1ccccc1` the value was “inactive”.
Same read-out and setting: next, `C/C(=N\NC(=S)NCCCC(=O)O)c1ccccc1`: “inactive”.
As for `O=C1NC(=O)C(c2ccccc2)(c2ccccc2)N1` [PHENYTOIN], the outcome was inactive.
With `C/C(=N\NC(=S)NCCCC(=O)O)c1ccc([N+](=O)[O-])cc1`, the outcome was inactive.
As to `NNC(=S)NCCCC(=O)O`, the outcome was inactive.
Still for that read-out and setting: for `O=C(O)CCCNC(=S)N/N=C/c1ccccc1O` the value was “inactive”.
On the same count and under the same terms, next, `O=C(O)CCCNC(=S)N/N=C/c1ccc([N+](=O)[O-])cc1`: “inactive”.
In the case of `C/C(=N\NC(=S)NCCCC(=O)O)c1ccc(C)cc1`, the outcome was inactive.

Another series has as its system Mus musculus. Briefly: Anticonvulsant activity in ip dosed Swiss albino mouse assessed as inhibition of subcutaneous picrotoxin-induced seizures administered 30 mins before PIC challenge measured after 0.5 hrs post PIC challenge. Type of series: functional.
Details: not given
On to `C/C(=N\NC(=S)NCCCC(=O)O)c1ccccc1`, for which the Activity turned out to be 100 mg/kg.
Same read-out and setting: for `O=C(O)CCCNC(=S)N/N=C/c1ccc([N+](=O)[O-])cc1` the value was 300 mg/kg.

Another series has as its system Mus musculus. Briefly: Anticonvulsant activity in Swiss albino mouse assessed as inhibition of subcutaneous picrotoxin-induced seizures at 300 mg/kg, ip administered 30 mins before PIC challenge measured after 4 hrs post PIC challenge. Type of series: functional, organism-based. The arrangement: dose 300 mg/kg.
Details: not given
In the case of `Nc1nnc(-c2cccc(Cl)c2Cl)c(N)n1` [LAMOTRIGINE], the outcome was inactive.
As for `O=C1NC(=O)C(c2ccccc2)(c2ccccc2)N1` [PHENYTOIN], the result was inactive.
On the same count and under the same terms, next, `C/C(=N\NC(=S)NCCCC(=O)O)c1ccc([N+](=O)[O-])cc1`: “inactive”.
The same measure, in the same setting: for `NNC(=S)NCCCC(=O)O` the value was “inactive”; for `C/C(=N\NC(=S)NCCCC(=O)O)c1ccc(C)cc1`, “inactive”.

The test system of another series is Mus musculus. Briefly: Neurotoxicity in ip dosed Swiss albino mouse assessed as inability of animal to maintain equilibrium on the rod for at least 1 min after 4 hrs by rotarod test. Type of series: toxicity, organism-based. The note with it: in vivo. In general terms: Falling from the rotarod earlier than controls is read as motor impairment.
For the compound `Nc1nnc(-c2cccc(Cl)c2Cl)c(N)n1` [LAMOTRIGINE], the Activity was 100 mg/kg.
Take `O=C1NC(=O)C(c2ccccc2)(c2ccccc2)N1` [PHENYTOIN]: the Activity was 100 mg/kg.
The same measure, in the same setting: for `C/C(=N\NC(=S)NCCCC(=O)O)c1ccc([N+](=O)[O-])cc1` the value was 100 mg/kg; for `NNC(=S)NCCCC(=O)O`, 300 mg/kg.

The next series concerns Mus musculus. Briefly: Anticonvulsant activity in ip dosed Swiss albino mouse assessed as inhibition of subcutaneous strychnine-induced seizures administered 30 mins before STY challenge measured after 0.5 hrs post STY challenge.
Details: not given
Type of series: functional.
As to `O=C(O)CCCNC(=S)N/N=C/c1ccccc1O`, the Activity was 100 mg/kg.

The subject of the next series is Mus musculus. Briefly: Neurotoxicity in Swiss albino mouse assessed as inability of animal to maintain equilibrium on the rod for at least 1 min at 300 mg/kg, ip after 4 hrs by rotarod test. The format is toxicity, organism-based. The arrangement: dose 300 mg/kg, route intraperitoneal. The note with it: in vivo.
Consider `O=C(O)CCCNC(=S)NN=C(c1ccccc1)c1ccccc1`, for which the Activity result is recorded as “Non-toxic”.
On the same count and under the same terms, for `C/C(=N\NC(=S)NCCCC(=O)O)c1ccccc1` the value was “Non-toxic”; for `O=C(O)CCCNC(=S)N/N=C/c1ccccc1O`, “Non-toxic”; for `O=C(O)CCCNC(=S)N/N=C/c1ccc([N+](=O)[O-])cc1`, “Non-toxic”.
For `C/C(=N\NC(=S)NCCCC(=O)O)c1ccc(C)cc1`, the Activity result was “Non-toxic”.

Another series relates to Mus musculus. Briefly: Anticonvulsant activity in Swiss albino mouse assessed as inhibition of subcutaneous pentylenetetrazole-induced seizures at 300 mg/kg, ip administered 30 mins before PTZ challenge measured after 0.5 hrs post PTZ challenge. The format is functional, organism-based. The arrangement: dose 300 mg/kg.
Details: not given
With `O=C(O)CCCNC(=S)NN=C(c1ccccc1)c1ccccc1`, the result was inactive.
Consider `O=C1NC(=O)C(c2ccccc2)(c2ccccc2)N1` [PHENYTOIN], for which the outcome was inactive.
With `C/C(=N\NC(=S)NCCCC(=O)O)c1ccc([N+](=O)[O-])cc1`, the result was inactive.
On to `NNC(=S)NCCCC(=O)O`, for which the outcome was inactive.
For `O=C(O)CCCNC(=S)N/N=C/c1ccc([N+](=O)[O-])cc1`, the outcome was inactive.
`C/C(=N\NC(=S)NCCCC(=O)O)c1ccc(C)cc1`: the outcome was inactive.

The subject of the next series is Rattus norvegicus. Briefly: Anticonvulsant activity in Wistar rat assessed as protection against hyperthermia-induced seizures at 100 mg/kg, ip relative to control. The note with it: route intraperitoneal. The format is functional.
As for `Nc1nnc(-c2cccc(Cl)c2Cl)c(N)n1` [LAMOTRIGINE], the Activity is given as 51%.
On to `O=C(O)CCCNC(=S)NN=C(c1ccccc1)c1ccccc1`, for which the Activity is recorded as 83%.
With `C/C(=N\NC(=S)NCCCC(=O)O)c1ccccc1`, the Activity is 90%.
On the same count and under the same terms, next, `C/C(=N\NC(=S)NCCCC(=O)O)c1ccc([N+](=O)[O-])cc1`: 46%; `NNC(=S)NCCCC(=O)O`: 27%.
As for `O=C(O)CCCNC(=S)N/N=C/c1ccccc1O`, the Activity is given as 92%.
Regarding `O=C(O)CCCNC(=S)N/N=C/c1ccc([N+](=O)[O-])cc1`, the Activity was 85%.
The same measure, in the same setting: for `C/C(=N\NC(=S)NCCCC(=O)O)c1ccc(C)cc1` the value was 80%.

The next series concerns Mus musculus. Briefly: Anticonvulsant activity in Swiss albino mouse assessed as inhibition of subcutaneous strychnine-induced seizures at 300 mg/kg, ip administered 30 mins before STY challenge measured after 4 hrs post STY challenge. The format is functional, organism-based. The arrangement: dose 300 mg/kg.
Details: not given
Turning to `Nc1nnc(-c2cccc(Cl)c2Cl)c(N)n1` [LAMOTRIGINE], the outcome was inactive.
Same read-out and setting: next, `O=C(O)CCCNC(=S)NN=C(c1ccccc1)c1ccccc1`: “inactive”; `C/C(=N\NC(=S)NCCCC(=O)O)c1ccccc1`: “inactive”; `O=C1NC(=O)C(c2ccccc2)(c2ccccc2)N1` [PHENYTOIN]: “inactive”.
Still for that read-out and setting: for `C/C(=N\NC(=S)NCCCC(=O)O)c1ccc([N+](=O)[O-])cc1` the value was “inactive”; for `NNC(=S)NCCCC(=O)O`, “inactive”; for `O=C(O)CCCNC(=S)N/N=C/c1ccccc1O`, “inactive”.
As to `O=C(O)CCCNC(=S)N/N=C/c1ccc([N+](=O)[O-])cc1`, the result was inactive.
For the compound `C/C(=N\NC(=S)NCCCC(=O)O)c1ccc(C)cc1`, the result was inactive.

For another series, the system named is Mus musculus. Briefly: Neurotoxicity in ip dosed Swiss albino mouse assessed as inability of animal to maintain equilibrium on the rod for at least 1 min after 0.5 hrs by rotarod test. The note with it: in vivo. Type of series: toxicity, organism-based.
For the compound `Nc1nnc(-c2cccc(Cl)c2Cl)c(N)n1` [LAMOTRIGINE], the Activity turned out to be 100 mg/kg.
In the case of `O=C1NC(=O)C(c2ccccc2)(c2ccccc2)N1` [PHENYTOIN], the Activity was 100 mg/kg.
For `C/C(=N\NC(=S)NCCCC(=O)O)c1ccc([N+](=O)[O-])cc1`, the Activity was 100 mg/kg.
Turning to `NNC(=S)NCCCC(=O)O`, the Activity stood at 300 mg/kg.
